In PMC11497331 (Glia, 2021):

System: primary microglia from wild-type (WT) mice
Type: cell-based

Q: `C=C1[C@@H](C)[C@H]2[C@H](Cc3ccccc3)NC(=O)[C@]23[C@H](OC(C)=O)/C=C/[C@@](C)(O)C(=O)[C@@H](C)C/C=C/[C@H]3[C@@H]1O` [cytochalasin D, Cytochalasin D] was tested. Which “effect of cytochalasin D on Aβ uptake” value did it give?
A: reduced
